{
  "source": "patent US11180468B2",
  "about": "“Prodrugs of urolithins and uses thereof” (Amazentis SA, priority 2013, dated 2021)",
  "key": {"[1]": {"assay": "Solubility in phosphate buffer at pH 4 at room temperature, filtered solution analysed by HPLC against DMSO standard", "assay_type": "physicochemical", "conditions": "phosphate buffer pH 4, room temperature; for solubility: aqueous buffer, thermodynamic from solid", "procedure": "(§1) All HPLC analyses were carried out on a 5 μL sample on an Agilent 1100 series HPLC system including HPLC pump, auto injector, column oven and PDA detector with a Waters XBridgeC18, 50×2.1 mm, 5 μm column at a temperature of 40° C. and a flow rate of 0.4 mL/min using the following gradient: […]\nA maximum amount of each compound was dissolved in 400 μL of phosphate buffer at pH 4 at room temperature in a filter vial (Agilent 0.45 μm PP Mini-UniPrep™). The filtered solutions were analysed by HPLC as described above. The peak area of the substance dissolved in buffer was compared to that of a standard prepared in DMSO."}, "[2]": {"assay": "Stability (degradation) in aqueous phosphate buffer solution at room temperature, HPLC percentage remaining", "assay_type": "physicochemical", "procedure": "as §1\nThe stability of the compounds in aqueous solution at room temperature was measured by dissolving the compounds in phosphate buffer of a pH chosen from 2, 3, 4, and/or 5. The compounds with low water solubility were first dissolved in DMSO and then diluted with phosphate buffer to contain 10% of DMSO. The samples were analysed by HPLC, as described above, at time 0 and several times thereafter. The peak area of the samples at these times were compared to the areas at t=0 to calculate the percentage remaining of the starting compound.\nThe solutions were prepared for each of the compounds as set out in Table 8. Plots of the percentage remaining of starting substance over time for each of the compounds measured are given in FIGS. 1-6, and t50 values (time taken for 50% of the starting compound to degrade) are given in Table 8."}, "[3]": {"assay": "Oral bioavailability: plasma concentration of Urolithin after oral administration to rats", "assay_type": "in vivo, Sprague-Dawley rats", "conditions": "rat", "procedure": "The oral bioavailability of compounds of the invention can be assessed by orally administering a dose of compound in solution to Sprague-Dawley rats. Blood samples are collected from each rat before administration, and at intervals up to 24 hours thereafter. The blood samples are analysed for the plasma concentration of Urolithin. […] The Urolithin A was still present in the blood at a concentration of 2.6 mg/ml at 12 hours following administration in the case of the saline solution, and 1.30 mg/ml in the case of the DMSO/water solution. The Cmax and AUC of Urolithin A were higher when the compound of Example 4 was orally administered than when Urolithin A was orally administered."}, "[4]": {"conditions": "Urolithin A compounds, molar basis, read-out: Solubility (mM/L)"}, "[5]": {"conditions": "Urolithin A compounds, read-out: Solubility"}, "[6]": {"conditions": "Urolithin B compounds, molar basis, read-out: Solubility (mM/L)"}, "[7]": {"conditions": "Urolithin B compounds, read-out: Solubility"}},
  "note": "Structures can show the parent of a compound that is named as a salt. Where two headings read alike, the source gives them in different places.",
  "data": [
    {"smiles": "O=c1oc2cc(O)ccc2c2ccc(O)cc12", "note": "[Urolithin A, reference compound]", "values": [
      {"measurement": "solubility", "setting": "[1]; [4]", "result": 0.00057, "unit": "mM"},
      {"measurement": "solubility", "setting": "[1]; [5]", "result": 0.13, "unit": "µg/mL"}
    ]},
    {"smiles": "CC(C)C[C@H](N)C(=O)Oc1ccc2c(c1)oc(=O)c1ccccc12", "note": "[Example 5, 6-Oxo-6H-benzo[c]chromen-3-yl (2S)-2-amino-4-methylpentanoate hydrochloride]", "values": [
      {"measurement": "Degradation rate compared in words", "setting": "[2]; at pH 2 and pH 5", "result": "degrades more slowly than Example 1"},
      {"measurement": "t50 (mins), time taken for 50% of the starting compound to degrade", "setting": "[2]; pH 2, 0.2 mg in 1 mL, FIG. 6", "result": 240, "unit": "min"},
      {"measurement": "Increase in the rate of degradation when the pH of the solution is increased from 2 to 5", "setting": "[2]; pH 2 to pH 5", "result": "two-fold"},
      {"measurement": "t50 (mins), time taken for 50% of the starting compound to degrade", "setting": "[2]; pH 5, 0.3 mg in 1 mL, FIG. 6", "result": 125, "unit": "min"}
    ]},
    {"smiles": "O=c1oc2cc(O)ccc2c2ccccc12", "note": "[Urolithin B, reference compound]", "values": [
      {"measurement": "solubility", "setting": "[1]; [6]", "result": 0.00127, "unit": "mM"},
      {"measurement": "solubility", "setting": "[1]; [7]", "result": 0.27, "unit": "µg/mL"}
    ]},
    {"smiles": "NCC(=O)Oc1ccc2c(c1)oc(=O)c1ccccc12", "note": "[Example 3, 6-Oxo-6H-benzo[c]chromen-3-yl 2-aminoacetate hydrochloride]", "values": [
      {"measurement": "solubility", "setting": "[1]; [6]", "result": 4.94, "unit": "mM"},
      {"measurement": "solubility", "setting": "[1]; [7]", "result": 1330, "unit": "µg/mL"},
      {"measurement": "Degradation rate compared in words", "setting": "[2]; at pH 4", "result": "degrades more slowly than Example 1"},
      {"measurement": "t50 (mins), time taken for 50% of the starting compound to degrade", "setting": "[2]; pH 4, 0.31 mg in 1 mL, FIG. 3", "result": 156, "unit": "min"}
    ]},
    {"smiles": "NCC(=O)Oc1ccc2c(c1)oc(=O)c1cc(OC(=O)CN)ccc12", "note": "[Example 1, 8-[(2-Aminoacetyl)oxy]-6-oxo-6H-benzo[c]chromen-3-yl 2-aminoacetate dihydrochloride]", "values": [
      {"measurement": "solubility", "setting": "[1]; [4]", "result": 5.64, "unit": "mM"},
      {"measurement": "solubility", "setting": "[1]; [5]", "result": 1930, "unit": "µg/mL"},
      {"measurement": "Solubility compared in words", "setting": "[1]", "result": "more soluble than the Glycine urolithin B compound (Example 3)"},
      {"measurement": "Degradation rate compared in words", "setting": "[2]; at pH 4", "result": "degrades more slowly than Example 2"},
      {"measurement": "t50 (mins), time taken for 50% of the starting compound to degrade", "setting": "[2]; pH 2, 0.16 mg in 1 mL, FIG. 5", "result": 81, "unit": "min"},
      {"measurement": "t50 (mins), time taken for 50% of the starting compound to degrade", "setting": "[2]; pH 4, 0.77 mg in 1 mL, FIG. 1", "result": 74, "unit": "min"},
      {"measurement": "t50 (mins), time taken for 50% of the starting compound to degrade", "setting": "[2]; pH 5, 0.16 mg in 1 mL, FIG. 5", "result": 27, "unit": "min"}
    ]},
    {"smiles": "CC(C)CC(N)C(=O)Oc1ccc2c(c1)oc(=O)c1cc(OC(=O)[C@H](N)CC(C)C)ccc12", "note": "(stereo in doubt) [Example 4, 8-{[(2R)-2-Amino-4-methylpentanoyl]oxy}-6-oxo-6H-benzo[c]chromen-3-yl (2S)-2-amino-4-methylpentanoate dihydrochloride]", "values": [
      {"measurement": "AUC of Urolithin A compared with oral administration of Urolithin A", "setting": "[3]", "result": "higher"},
      {"measurement": "Cmax of Urolithin A compared with oral administration of Urolithin A", "setting": "[3]", "result": "higher"},
      {"measurement": "Delivery of Urolithin A into the blood following oral administration, compared with oral Urolithin A", "setting": "[3]", "result": "at least as effectively"},
      {"measurement": "solubility", "setting": "[1]; [4]", "result": 4.73, "unit": "mM"},
      {"measurement": "solubility", "setting": "[1]; [5]", "result": 2150, "unit": "µg/mL"},
      {"measurement": "Solubility compared in words", "setting": "[1]", "result": "particularly soluble compared to the parent compound"},
      {"measurement": "Degradation rate compared in words", "setting": "[2]; at pH 4", "result": "degrades more slowly than Example 3"},
      {"measurement": "t50 (mins), time taken for 50% of the starting compound to degrade", "setting": "[2]; pH 4, 0.4 mg in 1 mL, FIG. 4", "result": 405, "unit": "min"}
    ]},
    {"smiles": "CC(N)C(=O)Oc1ccc2c(c1)oc(=O)c1cc(OC(=O)[C@@H](C)N)ccc12", "note": "(stereo in doubt) [Example 2, 8-{[(2R)-2-Aminopropanoyl]oxy}-6-oxo-6H-benzo[c]chromen-3-yl (2S)-2-aminopropanoate dihydrochloride]", "values": [
      {"measurement": "solubility", "setting": "[1]; [4]", "result": 4.86, "unit": "mM"},
      {"measurement": "solubility", "setting": "[1]; [5]", "result": 1800, "unit": "µg/mL"},
      {"measurement": "t50 (mins), time taken for 50% of the starting compound to degrade", "setting": "[2]; pH 4, 0.33 mg in 0.66 mL (second time), FIG. 2", "result": 31, "unit": "min"},
      {"measurement": "t50 (mins), time taken for 50% of the starting compound to degrade", "setting": "[2]; pH 4, 0.72 mg in 0.4 mL, FIG. 2", "result": 56, "unit": "min"},
      {"measurement": "t50 (mins), time taken for 50% of the starting compound to degrade", "setting": "[2]; pH 4, 0.94 mg in 1.8 mL (first time), FIG. 2", "result": 29, "unit": "min"}
    ]}
  ]
}
